Converted amounts (≈) assume the structure as drawn. Read-outs that look alike come from different tables or passages of the source.
Assays:
Test in all cases: MIC, broth microdilution
E. coli GC 2235 = settings: Escherichia coli
E. coli GC 2233 = settings: Escherichia coli
Procedure: (§1) Antimicrobial susceptibility testing. The in vitro activities of the antibiotics are determined by the broth microdilution method as recommended by the National Committee for Clinical Laboratory Standards (NCCLS) (1). Mueller-Hinton II broth (MHBII)(BBL Cockeysville, Md.) is the medium employed in the testing procedures. Microtiter plates containing serial dilutions of each antimicrobial agent are inoculated with each organism to yield the appropriate density (10^5 CFU/ml) in a 100 μl final volume. The plates are incubated for 18-22 hours at 35° C. in ambient air.
(§2) Representative compounds were first incubated in mouse serum for an hour prior to the in vitro testing against a panel of selected gram-positive and gram-negative bacteria strains. All compounds were also pre-incubated in water for an hour prior to testing as control.

E. coli GC 2234 = settings: Escherichia coli
E. coli GC 2270 = settings: Escherichia coli
E. coli GC 2271 = settings: Escherichia coli
Procedure: as §1, §2

E. coli GC 4559 = settings: Escherichia coli
E. coli GC 4560 = settings: Escherichia coli
E. coli GC 6465 = settings: Escherichia coli
E. coli GC 3226 = settings: Escherichia coli
E. coli GC 2203 = settings: Escherichia coli
E. coli GC 1073 = settings: Escherichia coli
Procedure: as §1
Representative compounds were first incubated in mouse serum for an hour prior to the in vitro testing against a panel of selected gram-positive and gram-negative bacteria strains. All compounds were also pre-incubated in water for an hour prior to testing as control. Representative compounds of Formula I were incubated in human serum prior to MIC determination.

S. typhimurium GC 2172 = settings: Salmonella enterica, TYPHIMURIUM
S. aureus GC 6466 = settings: Staphylococcus aureus
S. aureus GC 6467 = settings: Staphylococcus aureus
S. aureus GC 1079 = settings: Staphylococcus aureus
S. aureus GC 6335 = settings: Staphylococcus aureus
S. aureus GC 6469 = settings: Staphylococcus aureus
E. faecium GC 4556 = settings: Enterococcus faecium
S. pyogenes GC 4563 = settings: Streptococcus pyogenes
S. agalactiae GC 4564 = settings: Streptococcus agalactiae

`CN(C)c1cc(NC(=O)CN(C(=O)OCOC(=O)C2CCCCC2)C(C)(C)C)c(O)c2c1C[C@H]1C[C@H]3[C@H](N(C)C)C(O)=C(C(N)=O)C(=O)[C@@]3(O)C(O)=C1C2=O` [Example 50, ({[(2-{[(5aR,6aS,7S,10aS)-9-(aminocarbonyl)-4,7-bis(dimethylamino)-1,8,10a,11-tetrahydroxy-10,12-dioxo-5,5a,6,6a,7,10,10a,12-octahydrotetracen-2-yl]amino}-2-oxoethyl)(tert-butyl)amino]carbonyl}oxy)methyl cyclohexanecarboxylate] was tested, and the MIC (E. coli GC 2235; GC2235, read-out: MINIMAL INHIBITORY CONCENTRATION MIC, Human Serum) was 4 µg/mL (≈ 5.2 µM), the MIC (E. coli GC 2235; GC2235, read-out: MINIMAL INHIBITORY CONCENTRATION MIC, Mouse Serum) was 1 µg/mL (≈ 1.3 µM) and the MIC (E. coli GC 2235; GC2235, read-out: MINIMAL INHIBITORY CONCENTRATION MIC, Water) was 32 µg/mL (≈ 41.6 µM). It also gave an MIC (E. coli GC 2233; GC2233, read-out: MINIMAL INHIBITORY CONCENTRATION MIC, Human Serum) of 8 µg/mL (≈ 10.4 µM), an MIC (E. coli GC 2233; GC2233, read-out: MINIMAL INHIBITORY CONCENTRATION MIC, Mouse Serum) of 1 µg/mL (≈ 1.3 µM) and an MIC (E. coli GC 2233; GC2233, read-out: MINIMAL INHIBITORY CONCENTRATION MIC, Water) of 32 µg/mL (≈ 41.6 µM). For the same compound, the MIC (E. coli GC 2234; GC2234, read-out: MINIMAL INHIBITORY CONCENTRATION MIC, Human Serum) was 8 µg/mL (≈ 10.4 µM), the MIC (E. coli GC 2234; GC2234, read-out: MINIMAL INHIBITORY CONCENTRATION MIC, Mouse Serum) was 1 µg/mL (≈ 1.3 µM) and the MIC (E. coli GC 2234; GC2234, read-out: MINIMAL INHIBITORY CONCENTRATION MIC, Water) was 64 µg/mL (≈ 83.1 µM). For the same compound, the MIC (E. coli GC 2270; GC2270, read-out: MINIMAL INHIBITORY CONCENTRATION MIC, Human Serum) was 8 µg/mL (≈ 10.4 µM), the MIC (E. coli GC 2270; GC2270, read-out: MINIMAL INHIBITORY CONCENTRATION MIC, Mouse Serum) was 1 µg/mL (≈ 1.3 µM) and the MIC (E. coli GC 2270; GC2270, read-out: MINIMAL INHIBITORY CONCENTRATION MIC, Water) was 32 µg/mL (≈ 41.6 µM). It also gave an MIC (E. coli GC 2271; GC2271, read-out: MINIMAL INHIBITORY CONCENTRATION MIC, Human Serum) of 4 µg/mL (≈ 5.2 µM), an MIC (E. coli GC 2271; GC2271, read-out: MINIMAL INHIBITORY CONCENTRATION MIC, Mouse Serum) of 1 µg/mL (≈ 1.3 µM) and an MIC (E. coli GC 2271; GC2271, read-out: MINIMAL INHIBITORY CONCENTRATION MIC, Water) of 32 µg/mL (≈ 41.6 µM). The MIC (E. coli GC 4559; GC4559, read-out: MINIMAL INHIBITORY CONCENTRATION MIC, Human Serum) was 16 µg/mL (≈ 20.8 µM), the MIC (E. coli GC 4559; GC4559, read-out: MINIMAL INHIBITORY CONCENTRATION MIC, Mouse Serum) was 2 µg/mL (≈ 2.6 µM) and the MIC (E. coli GC 4559; GC4559, read-out: MINIMAL INHIBITORY CONCENTRATION MIC, Water) was 64 µg/mL (≈ 83.1 µM). The MIC (E. coli GC 4560; GC4560, read-out: MINIMAL INHIBITORY CONCENTRATION MIC, Human Serum) was 2 µg/mL (≈ 2.6 µM), the MIC (E. coli GC 4560; GC4560, read-out: MINIMAL INHIBITORY CONCENTRATION MIC, Mouse Serum) was 0.5 µg/mL (≈ 0.649 µM) and the MIC (E. coli GC 4560; GC4560, read-out: MINIMAL INHIBITORY CONCENTRATION MIC, Water) was 4 µg/mL (≈ 5.2 µM). For the same compound, the MIC (E. coli GC 6465; GC6465, read-out: MINIMAL INHIBITORY CONCENTRATION MIC, Human Serum) was 16 µg/mL (≈ 20.8 µM), the MIC (E. coli GC 6465; GC6465, read-out: MINIMAL INHIBITORY CONCENTRATION MIC, Mouse Serum) was 2 µg/mL (≈ 2.6 µM) and the MIC (E. coli GC 6465; GC6465, read-out: MINIMAL INHIBITORY CONCENTRATION MIC, Water) was greater than 64 µg/mL. For the same compound, the MIC (E. coli GC 3226; GC3226, read-out: MINIMAL INHIBITORY CONCENTRATION MIC, Human Serum) was 8 µg/mL (≈ 10.4 µM), the MIC (E. coli GC 3226; GC3226, read-out: MINIMAL INHIBITORY CONCENTRATION MIC, Mouse Serum) was 1 µg/mL (≈ 1.3 µM) and the MIC (E. coli GC 3226; GC3226, read-out: MINIMAL INHIBITORY CONCENTRATION MIC, Water) was 32 µg/mL (≈ 41.6 µM). For the same compound, the MIC (E. coli GC 2203; GC2203, read-out: MINIMAL INHIBITORY CONCENTRATION MIC, Human Serum) was 8 µg/mL (≈ 10.4 µM), the MIC (E. coli GC 2203; GC2203, read-out: MINIMAL INHIBITORY CONCENTRATION MIC, Mouse Serum) was 1 µg/mL (≈ 1.3 µM) and the MIC (E. coli GC 2203; GC2203, read-out: MINIMAL INHIBITORY CONCENTRATION MIC, Water) was 32 µg/mL (≈ 41.6 µM). It also gave an MIC (E. coli GC 1073; GC1073, read-out: MINIMAL INHIBITORY CONCENTRATION MIC, Human Serum) of 8 µg/mL (≈ 10.4 µM), an MIC (E. coli GC 1073; GC1073, read-out: MINIMAL INHIBITORY CONCENTRATION MIC, Mouse Serum) of 2 µg/mL (≈ 2.6 µM) and an MIC (E. coli GC 1073; GC1073, read-out: MINIMAL INHIBITORY CONCENTRATION MIC, Water) of 32 µg/mL (≈ 41.6 µM). For the same compound, the MIC (S. typhimurium GC 2172; read-out: MINIMAL INHIBITORY CONCENTRATION MIC, Human Serum) was 32 µg/mL (≈ 41.6 µM), the MIC (S. typhimurium GC 2172; read-out: MINIMAL INHIBITORY CONCENTRATION MIC, Mouse Serum) was 4 µg/mL (≈ 5.2 µM) and the MIC (S. typhimurium GC 2172; read-out: MINIMAL INHIBITORY CONCENTRATION MIC, Water) was greater than 64 µg/mL. The MIC (S. aureus GC 6466; GC6466, read-out: MINIMAL INHIBITORY CONCENTRATION MIC, Human Serum) was 0.25 µg/mL (≈ 0.325 µM), the MIC (S. aureus GC 6466; GC6466, read-out: MINIMAL INHIBITORY CONCENTRATION MIC, Mouse Serum) was 0.25 µg/mL (≈ 0.325 µM) and the MIC (S. aureus GC 6466; GC6466, read-out: MINIMAL INHIBITORY CONCENTRATION MIC, Water) was 0.25 µg/mL (≈ 0.325 µM). For the same compound, the MIC (S. aureus GC 6467; GC6467, read-out: MINIMAL INHIBITORY CONCENTRATION MIC, Human Serum) was 0.25 µg/mL (≈ 0.325 µM), the MIC (S. aureus GC 6467; GC6467, read-out: MINIMAL INHIBITORY CONCENTRATION MIC, Mouse Serum) was 0.25 µg/mL (≈ 0.325 µM) and the MIC (S. aureus GC 6467; GC6467, read-out: MINIMAL INHIBITORY CONCENTRATION MIC, Water) was 2 µg/mL (≈ 2.6 µM). It also gave an MIC (S. aureus GC 1079; GC1079, read-out: MINIMAL INHIBITORY CONCENTRATION MIC, Human Serum) of 0.5 µg/mL (≈ 0.649 µM), an MIC (S. aureus GC 1079; GC1079, read-out: MINIMAL INHIBITORY CONCENTRATION MIC, Mouse Serum) of 0.5 µg/mL (≈ 0.649 µM) and an MIC (S. aureus GC 1079; GC1079, read-out: MINIMAL INHIBITORY CONCENTRATION MIC, Water) of 2 µg/mL (≈ 2.6 µM). It also gave an MIC (S. aureus GC 6335; GC6335, read-out: MINIMAL INHIBITORY CONCENTRATION MIC, Human Serum) of 1 µg/mL (≈ 1.3 µM), an MIC (S. aureus GC 6335; GC6335, read-out: MINIMAL INHIBITORY CONCENTRATION MIC, Mouse Serum) of 1 µg/mL (≈ 1.3 µM) and an MIC (S. aureus GC 6335; GC6335, read-out: MINIMAL INHIBITORY CONCENTRATION MIC, Water) of 1 µg/mL (≈ 1.3 µM). It also gave an MIC (S. aureus GC 6469; GC6469, read-out: MINIMAL INHIBITORY CONCENTRATION MIC, Human Serum) of 1 µg/mL (≈ 1.3 µM), an MIC (S. aureus GC 6469; GC6469, read-out: MINIMAL INHIBITORY CONCENTRATION MIC, Mouse Serum) of 1 µg/mL (≈ 1.3 µM) and an MIC (S. aureus GC 6469; GC6469, read-out: MINIMAL INHIBITORY CONCENTRATION MIC, Water) of 2 µg/mL (≈ 2.6 µM). It also gave an MIC (E. faecium GC 4556; GC4556, read-out: MINIMAL INHIBITORY CONCENTRATION MIC, Human Serum) of 1 µg/mL (≈ 1.3 µM), an MIC (E. faecium GC 4556; GC4556, read-out: MINIMAL INHIBITORY CONCENTRATION MIC, Mouse Serum) of 1 µg/mL (≈ 1.3 µM) and an MIC (E. faecium GC 4556; GC4556, read-out: MINIMAL INHIBITORY CONCENTRATION MIC, Water) of 2 µg/mL (≈ 2.6 µM). It also gave an MIC (S. pyogenes GC 4563; GC4563, read-out: MINIMAL INHIBITORY CONCENTRATION MIC, Human Serum) of 0.12 µg/mL (≈ 0.156 µM), an MIC (S. pyogenes GC 4563; GC4563, read-out: MINIMAL INHIBITORY CONCENTRATION MIC, Mouse Serum) of 0.12 µg/mL (≈ 0.156 µM) and an MIC (S. pyogenes GC 4563; GC4563, read-out: MINIMAL INHIBITORY CONCENTRATION MIC, Water) of 0.25 µg/mL (≈ 0.325 µM). It also gave an MIC (S. agalactiae GC 4564; GC4564, read-out: MINIMAL INHIBITORY CONCENTRATION MIC, Human Serum) of 0.25 µg/mL (≈ 0.325 µM), an MIC (S. agalactiae GC 4564; GC4564, read-out: MINIMAL INHIBITORY CONCENTRATION MIC, Mouse Serum) of 0.25 µg/mL (≈ 0.325 µM) and an MIC (S. agalactiae GC 4564; GC4564, read-out: MINIMAL INHIBITORY CONCENTRATION MIC, Water) of 0.25 µg/mL (≈ 0.325 µM).

— patent US20070049564A1 (Wyeth, priority 2005, published 2007)
